Assay results: US20230270731A1, “THERAPEUTIC COMPOUNDS AND COMPOSITIONS” (eXIthera Pharmaceuticals, Inc., priority 2019, published 2023)
Like-named read-outs stand apart in the source and are kept apart here.

Columns and labels:
[1] = pH-dependent stability and pH-rate profile, 10-day, 4° C. and 40° C.; type: physicochemical; details: for stability in buffered aqueous solutions: pH=2-8, 0.1 mg/mL, 100 mM buffer, in the dark, 10 days
Experimental: The stability Compound 1 was assessed over a 10-day period at several pH-values pH=2, 3, 4, 5, 6, 7, 8) and at two different temperatures (4° C., 40° C.). Samples of Compound 1 at c(Compound 1)=0.1 mg/mL were prepared in standard buffers (Table 2) at a buffer strength of c(buffer)=100 mM and incubated at either T=4° C. or T=40° C. (exclusion from light during incubation and analysis). The concentration of Compound 1 was assessed in such samples via HPLC analysis at an initial time point (to) and on days 1, 2, 3, 4, 7 and 10 (Δt=day×24 h). The pH was monitored at identical time points during the 10-day period.
Over the 10-day period for both temperatures the pH of the sample solutions (FIG. 2A & FIG. 2B) was monitored and the recovery (R %) of Compound 1 (FIG. 3A & FIG. 3B) was calculated via:
whereas c(Compound 1, theor.)=0.1 mg/mL and c(Compound 1, actual) is determined by HPLC analysis via integration of the Compound 1 parent peak areas.

[2] = Compatibility with IV systems; type: physicochemical
Experimental: The compatibility of the reconstituted Compound 1 formulation with two infusion bags (different volumes and material) and two IV lines was tested (Table 13) at c(Compound 1)=0.1 mg/mL. After injection of the reconstituted drug product solution into infusion bags filled with NS, the recovery of Compound 1 was measured i) directly after mixing with the infusion vehicle (to, Table 14) and ii) after Δt=[…] of contact time with the infusion bag (Table 15). Additionally, storage in an infusion bag at ambient temperature and lighting conditions was assessed for Δt=6 h (Table 15). The average values of % recovery are relative to the reconstituted drug product that has not been in contact with the tested materials.
The two IV systems were evaluated for compatibility with the reconstituted drug product solution by filling the IV lines with the diluted (NS) drug product solution and flowing Vflow through (FT)=101 mL through the respective IV system at a flow rate of 5 mL/min. Flow-through samples of Vsample=1 mL were collected i) immediately (VFT=0 mL), ii) after VFT=10 mL and iii) after VFT=[…]. Flow through samples were assayed for recovery of Compound 1 and compared to the infusion solution in the reservoir at t0 (Table 16).

[3] = tested on: blood coagulation components (Cardiopulmonary Bypass circuit); type: in vivo
Experimental: The following parameters and endpoints were evaluated in this study: mortality, body weight, physical, clinical pathology parameters (hematology and coagulation), coagulation time, and bioanalytical parameters.
The vehicle and test article were administered via intravenous (IV) infusion once on Day 1 for 135 minutes (initiated 30 minutes prior to starting the Cardiopulmonary Bypass (CPB) and continuing for 105 minutes of CPB). Group 2 animals received a […] IV bolus dose immediately prior to the start of IV infusion. Group 3, 4, and 5 animals received a 10 mg/kg IV bolus dose prior to the start of the IV infusion; with the CPB machine primed with test article at 10 μg/mL.
Infusion of the Compound 1 was started 30 minutes prior to the animal being placed on the CPB pump. The CPB pump was primed with 0.9% saline.
Venous and arterial sheaths were flushed with the Compound 1 at a concentration of 10 μg/mL. An IV bolus dose of the test article was administered immediately prior to the start of the infusion. Infusion of Compound 1 was started 30 minutes prior to the animal being placed on the CPB pump. The CPB […] was primed with 10 μg/mL of the Compound 1 prior to initiation of the CPB pump.
An IV bolus dose of the Compound 1 was administered immediately prior to the start of the infusion. Infusion of Compound 1 was started 30 minutes prior to the animal being placed on the CPB pump.

[4] = Reconstitution and reconstitution stability of the lyophilized Compound 1 drug product; type: physicochemical; details: reconstituted drug product
Experimental: The lyophilized Compound 1 drug product was subjected to testing of reconstitution and to stability testing for 6 h after reconstituted with DI water VDIwater=5 mL.
The lyophilization cake readily reconstituted within 10-20 s. The solution during reconstitution appeared quite foamy and contained many bubbles, which cleared within approximately 2 min addition of the reconstitution solution. Residual micro-bubbles on the container wall can be removed by vortexing (2 s) or sonication (2 s). […] The pH of the reconstituted solution was measured with pH=6.81; the osmolality was determined to φ=295 mOsm/kg. The reconstituted solution was practically free of particulates as determined by liquid particle counting (LPC, HIAC: Vsample=5 mL, nruns=4, 1st run discarded, fdilution=10, Vnominal, container=2 mL) with a cumulative count of 3200 particles at a size of 10 μm and 667 particles at a size of 25 μm.
The recovery of Compound 1 was monitored for 24 h after reconstitution to test for the in-use stability of the reconstituted solution (Table 9)

[5] = Compatibility with vials and stoppers; type: physicochemical
Experimental: The compatibility of the reconstituted Compound 1 formulation with sterile manufacturing vials and stoppers (Table 17) was tested for a contact time of Δt=1 h at c(Compound 1, target)=10 mg/mL at ambient conditions. The average values of % recovery are relative to the reconstituted drug product that has not been in contact with the tested materials.

What does the source list for `C[C@@H](NC(=O)N1C(=O)[C@H](Cc2ccnc(N)c2)[C@H]1C(=O)O)C1CCCCC1` [Compound 1, (2S,3R)-3-[(2-aminopyridin-4-yl)methyl]-1-{[(1R)-1-cyclohexylethyl]carbamoyl}-4-oxoazetidine-2-carboxylic acid]?
precipitation of the drug compound ([1]; 0.1 mg/mL, pH 2-8, 10 days): no precipitation; stability/pH-correlation ([1]; pH 2-8, 10 days): more stable towards a low pH and less stable towards a higher pH; stability in buffered aqueous solutions ([1]; 4° C.): stable; stability in buffered aqueous solutions ([1]; 40° C.): significant degradation; Avg. c(Compound 1, FB, Obs.) ([2]; IV#1, VFT = 0 mL, 5 mL/min): 0.09 mg/mL; Avg. c(Compound 1, FB, Obs.) ([2]; IV#1, VFT = 10 mL, 5 mL/min): 0.09 mg/mL; Avg. c(Compound 1, FB, Obs.) ([2]; IV#1, VFT = 100 mL, 5 mL/min): 0.09 mg/mL; Avg. c(Compound 1, FB, Obs.) ([2]; IV#2, VFT = 0 mL, 5 mL/min): 0.09 mg/mL; Avg. c(Compound 1, FB, Obs.) ([2]; IV#2, VFT = 10 mL, 5 mL/min): 0.09 mg/mL; Avg. c(Compound 1, FB, Obs.) ([2]; IV#2, VFT = 100 mL, 5 mL/min): 0.09 mg/mL; Avg. c(Compound 1, FB, Obs.) ([2]; infus. bag, t0 (IV#1), reservoir): 0.09 mg/mL; Avg. c(Compound 1, FB, Obs.) ([2]; infus. bag, t0 (IV#2), reservoir): 0.09 mg/mL; relation between plasma concentration and aPTT ([3]; FIG. 12): correlation; aPTT ([3]; all groups, following cessation of infusion and CPB): trended towards baseline values, but remained moderately prolonged; prolongations in aPTT ([3]; course during infusion and CPB): persisted throughout Compound 1 infusion and CPB; morbidity or mortality ([3]; dog, in vivo): not associated with any increases in morbidity or mortality; survival ([3]; dog, in vivo): All animals survived; aPTT ([3]; during Compound 1 infusion and prior to CPB, all animals): moderately to markedly prolonged; prevention of activation of blood coagulation in components of cardiopulmonary bypass ([3]; hound CPB model): successful in preventing the activation of blood coagulation; selectivity of anticoagulant effects ([3]; hound CPB model, coagulation parameters): selective to inhibition of activated partial thromboplastin time (aPTT); pressure gradient across the membrane oxygenator ([3]; multiple doses, IV infusion, CPB run): stayed consistent through the entire run; Avg. c(Compound 1, FB, Obs.) ([4]; t0): 9.65 mg/mL; pH (Meas.) ([4]; t0): 6.80; Avg. c(Compound 1, FB, Obs.) ([4]; t = 1 h): 9.47 mg/mL; pH (Meas.) ([4]; t = 1 h): 6.79; Avg. c(Compound 1, FB, Obs.) ([4]; t = 2 h): 9.20 mg/mL; pH (Meas.) ([4]; t = 2 h): 6.80; Avg. c(Compound 1, FB, Obs.) ([4]; t = 4 h): 9.19 mg/mL; pH (Meas.) ([4]; t = 4 h): 6.79; Avg. c(Compound 1, FB, Obs.) ([4]; t = 6 h): 9.28 mg/mL; pH (Meas.) ([4]; t = 6 h): 6.79; Avg. c(Compound 1, FB, Obs.) ([4]; t = 24 h): 8.99 mg/mL; pH (Meas.) ([4]; t = 24 h): 6.85; Avg. c(Compound 1, FB, Obs.) ([5]; Reconst. Soln., no contact with tested materials): 9.32 mg/mL; Avg. c(Compound 1, FB, Obs.) ([5]; Stopper, t = 1 h, target 10 mg/mL, ambient): 9.28 mg/mL; Avg. c(Compound 1, FB, Obs.) ([5]; Vial, t = 1 h, target 10 mg/mL, ambient): 9.28 mg/mL
